Laboratory results as given in PubChem BioAssay (NCI).
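How tested: cells in 96-well plates exposed to compound for 48 hours at five concentrations. GI50 marks 50% less growth. TGI is the concentration that stops growth completely.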

Legend:
Assay in all cases: NCI anticancer screen, dose series, 48 h
A498 renal = tested on: A498 renal
OVCAR-3 ovarian = tested on: OVCAR-3 ovarian
NCI/ADR-RES ovarian = tested on: NCI/ADR-RES ovarian
DU-145 prostate = tested on: DU-145 prostate
PC-3 prostate = tested on: PC-3 prostate
SF-539 CNS = tested on: SF-539 CNS
OVCAR-4 ovarian = tested on: OVCAR-4 ovarian
K-562 leukemia = tested on: K-562 leukemia
OVCAR-8 ovarian = tested on: OVCAR-8 ovarian
EKVX NSCLC = tested on: EKVX NSCLC
SNB-75 CNS = tested on: SNB-75 CNS
SF-295 CNS = tested on: SF-295 CNS
KM12 colon = tested on: KM12 colon
ACHN renal = tested on: ACHN renal
HT29 colon = tested on: HT29 colon
HOP-92 NSCLC = tested on: HOP-92 NSCLC
SK-MEL-5 melanoma = tested on: SK-MEL-5 melanoma
SK-OV-3 ovarian = tested on: SK-OV-3 ovarian
U251 CNS = tested on: U251 CNS
SK-MEL-28 melanoma = tested on: SK-MEL-28 melanoma
NCI-H460 lung = tested on: NCI-H460 lung
MALME-3M melanoma = tested on: MALME-3M melanoma
NCI-H23 lung = tested on: NCI-H23 lung
CCRF-CEM leukemia = tested on: CCRF-CEM leukemia
786-0 renal = tested on: 786-0 renal
SW-620 colon = tested on: SW-620 colon
RXF 393 renal = tested on: RXF 393 renal
MOLT-4 leukemia = tested on: MOLT-4 leukemia
TK-10 renal = tested on: TK-10 renal

Work on `COc1ccc(C(=O)COC(=O)[C@H](C[Se][Se]C[C@H](NC(=O)c2ccc(Br)cc2F)C(=O)OCC(=O)c2ccc(OC)cc2)NC(=O)c2ccc(Br)cc2F)cc1` yielded a GI50 (A498 renal) of 896 nM, a TGI (A498 renal) of 8840 nM and a GI50 (OVCAR-3 ovarian) of 880 nM. It also gave a TGI (OVCAR-3 ovarian) of 2310 nM, a GI50 (NCI/ADR-RES ovarian) of 399 nM and a TGI (NCI/ADR-RES ovarian) of 1390 nM. The GI50 (DU-145 prostate) was 843 nM, the TGI (DU-145 prostate) was 2680 nM and the GI50 (PC-3 prostate) was 318 nM. For the same compound, the TGI (PC-3 prostate) was 1410 nM, the GI50 (SF-539 CNS) was 321 nM and the TGI (SF-539 CNS) was 976 nM. It also gave a GI50 (OVCAR-4 ovarian) of 1640 nM, a TGI (OVCAR-4 ovarian) of 3100 nM and a GI50 (K-562 leukemia) of 3300 nM. The TGI (K-562 leukemia) was greater than 55000 nM, the GI50 (OVCAR-8 ovarian) was 513 nM and the TGI (OVCAR-8 ovarian) was 1860 nM. The GI50 (EKVX NSCLC) was 591 nM, the TGI (EKVX NSCLC) was 2350 nM and the GI50 (SNB-75 CNS) was 347 nM. For the same compound, the TGI (SNB-75 CNS) was 1260 nM, the GI50 (SF-295 CNS) was 211 nM and the TGI (SF-295 CNS) was 610 nM. The GI50 (KM12 colon) was 376 nM, the TGI (KM12 colon) was 1550 nM and the GI50 (ACHN renal) was 884 nM. It also gave a TGI (ACHN renal) of 2490 nM, a GI50 (HT29 colon) of 879 nM and a TGI (HT29 colon) of 7480 nM. It also gave a GI50 (HOP-92 NSCLC) of 2040 nM, a TGI (HOP-92 NSCLC) of 5870 nM and a GI50 (SK-MEL-5 melanoma) of 596 nM. For the same compound, the TGI (SK-MEL-5 melanoma) was 2760 nM, the GI50 (SK-OV-3 ovarian) was 441 nM and the TGI (SK-OV-3 ovarian) was 1640 nM. It also gave a GI50 (U251 CNS) of 312 nM, a TGI (U251 CNS) of 1070 nM and a GI50 (SK-MEL-28 melanoma) of 1590 nM. The TGI (SK-MEL-28 melanoma) was 5610 nM, the GI50 (NCI-H460 lung) was 353 nM and the TGI (NCI-H460 lung) was 1310 nM. It also gave a GI50 (MALME-3M melanoma) of 2040 nM, a TGI (MALME-3M melanoma) of 4400 nM and a GI50 (NCI-H23 lung) of 412 nM. It also gave a TGI (NCI-H23 lung) of 1810 nM, a GI50 (CCRF-CEM leukemia) of 2500 nM and a TGI (CCRF-CEM leukemia) of 11600 nM. The GI50 (786-0 renal) was 433 nM, the TGI (786-0 renal) was 1460 nM and the GI50 (SW-620 colon) was 1440 nM. For the same compound, the TGI (SW-620 colon) was 3890 nM, the GI50 (RXF 393 renal) was 1560 nM and the TGI (RXF 393 renal) was 3190 nM. The GI50 (MOLT-4 leukemia) was 2630 nM, the TGI (MOLT-4 leukemia) was 17800 nM and the GI50 (TK-10 renal) was 1230 nM. It also gave a TGI (TK-10 renal) of 3400 nM.
